Assay results from PubChem BioAssay (NCI).
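All cell lines were grown in 96-well plates and treated with compound for 48 hours. At the GI50, growth is halved. TGI: total growth inhibition.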

Assays:
Experiment in all cases: DTP human tumour cell line panel, 48 h
OVCAR-5 ovarian = system: OVCAR-5 ovarian
T-47D breast = system: T-47D breast
UACC-62 melanoma = system: UACC-62 melanoma
HT29 colon = system: HT29 colon
OVCAR-3 ovarian = system: OVCAR-3 ovarian
SK-MEL-5 melanoma = system: SK-MEL-5 melanoma
KM12 colon = system: KM12 colon
A498 renal = system: A498 renal
ACHN renal = system: ACHN renal
MCF7 breast = system: MCF7 breast
LOX IMVI melanoma = system: LOX IMVI melanoma
K-562 leukemia = system: K-562 leukemia
SK-OV-3 ovarian = system: SK-OV-3 ovarian
DU-145 prostate = system: DU-145 prostate
CAKI-1 renal = system: CAKI-1 renal
HL-60(TB) leukemia = system: HL-60(TB) leukemia
U251 CNS = system: U251 CNS
BT-549 breast = system: BT-549 breast
SW-620 colon = system: SW-620 colon
HCC-2998 colon = system: HCC-2998 colon
TK-10 renal = system: TK-10 renal
SF-539 CNS = system: SF-539 CNS
UO-31 renal = system: UO-31 renal
SNB-19 CNS = system: SNB-19 CNS
MDA-MB-468 breast = system: MDA-MB-468 breast
MDA-MB-435 = system: MDA-MB-435
NCI-H226 lung = system: NCI-H226 lung
NCI-H522 lung = system: NCI-H522 lung
RPMI-8226 leukemia = system: RPMI-8226 leukemia
PC-3 prostate = system: PC-3 prostate
UACC-257 melanoma = system: UACC-257 melanoma
SK-MEL-28 melanoma = system: SK-MEL-28 melanoma
A549 NSCLC = system: A549 NSCLC
OVCAR-4 ovarian = system: OVCAR-4 ovarian
M14 melanoma = system: M14 melanoma
786-0 renal = system: 786-0 renal
HCT-15 colon = system: HCT-15 colon
HOP-92 NSCLC = system: HOP-92 NSCLC
IGROV1 ovarian = system: IGROV1 ovarian
NCI-H23 lung = system: NCI-H23 lung
MDA-MB-231 breast = system: MDA-MB-231 breast
MALME-3M melanoma = system: MALME-3M melanoma
SF-268 CNS = system: SF-268 CNS
SNB-75 CNS = system: SNB-75 CNS
SK-MEL-2 melanoma = system: SK-MEL-2 melanoma
HOP-62 NSCLC = system: HOP-62 NSCLC
COLO 205 colon = system: COLO 205 colon
EKVX NSCLC = system: EKVX NSCLC
NCI-H460 lung = system: NCI-H460 lung
SF-295 CNS = system: SF-295 CNS
SR leukemia = system: SR leukemia
CCRF-CEM leukemia = system: CCRF-CEM leukemia
MOLT-4 leukemia = system: MOLT-4 leukemia
NCI/ADR-RES ovarian = system: NCI/ADR-RES ovarian
RXF 393 renal = system: RXF 393 renal
SN12C renal = system: SN12C renal
OVCAR-8 ovarian = system: OVCAR-8 ovarian
HCT-116 colon = system: HCT-116 colon

## CC(=O)Oc1ccccc1C(=O)[Se]CC(=O)Nc1cccc(C(F)(F)F)c1
OVCAR-5 ovarian
  GI50: 2.15 µM
  TGI: 5.12 µM
T-47D breast
  GI50: 7.09 µM
  TGI: 49.5 µM
UACC-62 melanoma
  GI50: 1.38 µM
  TGI: 3.07 µM
HT29 colon
  GI50: 1.88 µM
  TGI: 5.16 µM
OVCAR-3 ovarian
  GI50: 1.71 µM
  TGI: 4.38 µM
SK-MEL-5 melanoma
  GI50: 1.29 µM
  TGI: 2.69 µM
KM12 colon
  GI50: 5.04 µM
  TGI: 19.5 µM
A498 renal
  GI50: 1.45 µM
  TGI: 2.95 µM
ACHN renal
  GI50: 2.39 µM
  TGI: 6.36 µM
MCF7 breast
  GI50: 2.75 µM
  TGI: 12.4 µM
LOX IMVI melanoma
  GI50: 1.94 µM
  TGI: 3.65 µM
K-562 leukemia
  GI50: 5.59 µM
  TGI: 55.3 µM
SK-OV-3 ovarian
  GI50: 4.22 µM
  TGI: 20.3 µM
DU-145 prostate
  GI50: 2.09 µM
  TGI: 4.61 µM
CAKI-1 renal
  GI50: 0.198 µM
  TGI: 0.361 µM
HL-60(TB) leukemia
  GI50: 1.78 µM
  TGI: 5.27 µM
U251 CNS
  GI50: 2.12 µM
  TGI: 5.3 µM
BT-549 breast
  GI50: 2.13 µM
  TGI: 3.61 µM
SW-620 colon
  GI50: 1.46 µM
  TGI: 3.11 µM
HCC-2998 colon
  GI50: 11.9 µM
  TGI: 25.7 µM
TK-10 renal
  GI50: 2.07 µM
  TGI: 4.71 µM
SF-539 CNS
  GI50: 1.87 µM
  TGI: 3.34 µM
UO-31 renal
  GI50: 1.23 µM
  TGI: 2.56 µM
SNB-19 CNS
  GI50: 1.86 µM
  TGI: 3.8 µM
MDA-MB-468 breast
  GI50: 1.75 µM
  TGI: 3.35 µM
MDA-MB-435
  GI50: 3.12 µM
  TGI: 5.41 µM
NCI-H226 lung
  GI50: 3.11 µM
  TGI: 5.55 µM
NCI-H522 lung
  GI50: 1.83 µM
  TGI: 3.81 µM
RPMI-8226 leukemia
  GI50: 5.44 µM
  TGI: 85 µM
PC-3 prostate
  GI50: 5.23 µM
  TGI: 21.9 µM
UACC-257 melanoma
  GI50: 3.21 µM
  TGI: 9.82 µM
SK-MEL-28 melanoma
  GI50: 2.06 µM
  TGI: 4.35 µM
A549 NSCLC
  GI50: 1.66 µM
  TGI: 3.8 µM
OVCAR-4 ovarian
  GI50: 5.19 µM
  TGI: 60.9 µM
M14 melanoma
  GI50: 1.95 µM
  TGI: 3.83 µM
786-0 renal
  GI50: 2.21 µM
  TGI: 4.62 µM
HCT-15 colon
  GI50: 1.42 µM
  TGI: 2.85 µM
HOP-92 NSCLC
  GI50: 0.763 µM
  TGI: 2.15 µM
IGROV1 ovarian
  GI50: 2.05 µM
  TGI: 4 µM
NCI-H23 lung
  GI50: 1.5 µM
  TGI: 3.87 µM
MDA-MB-231 breast
  GI50: 2.31 µM
  TGI: 4.18 µM
MALME-3M melanoma
  GI50: 1.57 µM
  TGI: 3.04 µM
SF-268 CNS
  GI50: 2.69 µM
  TGI: 5.87 µM
SNB-75 CNS
  GI50: 2.47 µM
  TGI: 5.94 µM
SK-MEL-2 melanoma
  GI50: 2.84 µM
  TGI: 10.9 µM
HOP-62 NSCLC
  GI50: 2.91 µM
  TGI: 5.44 µM
COLO 205 colon
  GI50: 4.35 µM
  TGI: 17 µM

## COc1ccc(-c2ccnc(SCc3cc4cc(OC)ccc4[nH]c3=O)n2)cc1
OVCAR-5 ovarian
  GI50: 23.6 µM
  TGI: > 100 µM
EKVX NSCLC
  GI50: 4.16 µM
  TGI: > 100 µM
T-47D breast
  GI50: 4.97 µM
  TGI: > 100 µM
UACC-62 melanoma
  GI50: 4.62 µM
  TGI: > 100 µM
NCI-H460 lung
  GI50: 7.41 µM
  TGI: > 100 µM
SF-295 CNS
  GI50: 7.09 µM
  TGI: > 100 µM
HT29 colon
  GI50: 5.38 µM
  TGI: > 100 µM
OVCAR-3 ovarian
  GI50: 17.9 µM
  TGI: > 100 µM
SK-MEL-5 melanoma
  GI50: 4.95 µM
  TGI: 38 µM
SR leukemia
  GI50: 2.95 µM
  TGI: > 100 µM
KM12 colon
  GI50: 9.43 µM
  TGI: > 100 µM
A498 renal
  GI50: > 100 µM
  TGI: > 100 µM
ACHN renal
  GI50: 20.6 µM
  TGI: > 100 µM
MCF7 breast
  GI50: 4.65 µM
  TGI: > 100 µM
K-562 leukemia
  GI50: 2.55 µM
  TGI: > 100 µM
CCRF-CEM leukemia
  GI50: 6.66 µM
  TGI: > 100 µM
MOLT-4 leukemia
  GI50: 3.26 µM
  TGI: > 100 µM
SK-OV-3 ovarian
  GI50: 56.3 µM
  TGI: > 100 µM
DU-145 prostate
  GI50: 34.9 µM
  TGI: > 100 µM
CAKI-1 renal
  GI50: 6.11 µM
  TGI: > 100 µM
HL-60(TB) leukemia
  GI50: 2.34 µM
  TGI: > 100 µM
U251 CNS
  GI50: 12.4 µM
  TGI: > 100 µM
BT-549 breast
  GI50: 3.4 µM
  TGI: > 100 µM
HCC-2998 colon
  GI50: 31.4 µM
  TGI: > 100 µM
TK-10 renal
  GI50: 26.1 µM
  TGI: > 100 µM
SF-539 CNS
  GI50: 6.67 µM
  TGI: > 100 µM
UO-31 renal
  GI50: 8.94 µM
  TGI: > 100 µM
SNB-19 CNS
  GI50: 35.2 µM
  TGI: > 100 µM
MDA-MB-468 breast
  GI50: 2.09 µM
  TGI: 6.16 µM
MDA-MB-435
  GI50: 3.17 µM
  TGI: > 100 µM
NCI-H226 lung
  GI50: 8.14 µM
  TGI: > 100 µM
NCI-H522 lung
  GI50: 7.82 µM
  TGI: > 100 µM
RPMI-8226 leukemia
  GI50: 5.05 µM
  TGI: > 100 µM
NCI/ADR-RES ovarian
  GI50: 4.06 µM
  TGI: > 100 µM
PC-3 prostate
  GI50: 6.96 µM
  TGI: > 100 µM
UACC-257 melanoma
  GI50: 74.5 µM
  TGI: > 100 µM
SK-MEL-28 melanoma
  GI50: 14.1 µM
  TGI: > 100 µM
A549 NSCLC
  GI50: 10.1 µM
  TGI: > 100 µM
OVCAR-4 ovarian
  GI50: 17.6 µM
  TGI: > 100 µM
M14 melanoma
  GI50: 7.31 µM
  TGI: > 100 µM
786-0 renal
  GI50: 26 µM
  TGI: > 100 µM
RXF 393 renal
  GI50: 4.42 µM
  TGI: > 100 µM
HCT-15 colon
  GI50: 4.33 µM
  TGI: > 100 µM
SN12C renal
  GI50: 7.41 µM
  TGI: > 100 µM
OVCAR-8 ovarian
  GI50: 22.8 µM
  TGI: > 100 µM
HOP-92 NSCLC
  GI50: 7.95 µM
  TGI: > 100 µM
HCT-116 colon
  GI50: 3.64 µM
  TGI: > 100 µM
IGROV1 ovarian
  GI50: 5.66 µM
  TGI: > 100 µM
NCI-H23 lung
  GI50: 19 µM
  TGI: > 100 µM
MALME-3M melanoma
  GI50: 17 µM
  TGI: > 100 µM
SF-268 CNS
  GI50: 17.7 µM
  TGI: > 100 µM
SNB-75 CNS
  GI50: 2.46 µM
  TGI: 71.4 µM
SK-MEL-2 melanoma
  GI50: 6.27 µM
  TGI: > 100 µM
HOP-62 NSCLC
  GI50: 10.9 µM
  TGI: 97.9 µM
COLO 205 colon
  GI50: 17.3 µM
  TGI: > 100 µM
